Measured values from US20150065343A1, “Acrylamide compounds for combating invertebrate pests” (priority 2012, published 2015).

Legend:
Type in all cases: in vivo
[1] = system: Boll weevil (Anthonomus grandis); assay: B.10 Boll weevil microtiter plate test on insect diet with eggs; conditions: 120 h, sprayed onto insect diet at 20 μl, egg and larval mortality after 5 days, read-out: mortality in comparison with untreated controls
Protocol: B.10 Boll weevil (Anthonomus grandis)
For evaluating control of boll weevil (Anthonomus grandis) the test unit consisted of 24-well-microtiter plates containing an insect diet and 20-30 A. grandis eggs.
The compounds were formulated using a solution containing 75% v/v water and 25% v/v DMSO. Different concentrations of formulated compounds were sprayed onto the insect diet at 20 μl, using a custom built micro atomizer, at two replications.
After application, microtiter plates were incubated at about 23±1° C. and about 50±5% relative humidity for 5 days. Egg and larval mortality was then visually assessed.

[2] = system: Southern armyworm (Spodoptera eridania); assay: B.7 Southern armyworm spray test on lima bean plants; conditions: foliar, 96 h, sprayed lima bean foliage, armyworm larvae, 4 days after treatment, read-out: mortality in comparison with untreated controls
Protocol: B.7 Southern armyworm (Spodoptera eridania)
(§1) The active compounds were formulated in cyclohexanone as a 10,000 ppm solution supplied in tubes. The tubes were inserted into an automated electrostatic sprayer equipped with an atomizing nozzle and they served as stock solutions for which lower dilutions were made in 50% acetone:50% water (v/v). A nonionic surfactant (Kinetic®) was included in the solution at a volume of 0.01% (v/v).
Lima bean plants (variety Sieva) were grown 2 plants to a pot and selected for treatment at the 1st true leaf stage. Test solutions were sprayed onto the foliage by an automated electrostatic plant sprayer equipped with an atomizing spray nozzle. The plants were dried in the sprayer fume hood and then removed from the sprayer. Each pot was placed into perforated plastic bags with a zip closure. About 10 to 11 armyworm larvae were placed into the bag and the bags zipped closed. Test plants were maintained in a growth room at about 25° C. and about 20-40% relative humidity for 4 days, avoiding direct exposure to fluorescent light (24 hour photoperiod) to prevent trapping of heat inside the bags. Mortality and reduced feeding were assessed 4 days after treatment, compared to untreated control plants.

[3] = system: Mediterranean fruitfly (Ceratitis capitata); assay: B.4 Mediterranean fruitfly microtiter plate test on insect diet with eggs; conditions: 120 h, sprayed onto insect diet at 5 μl, egg and larval mortality after 5 days, read-out: mortality in comparison with untreated controls
Protocol: B.4 Mediterranean fruitfly (Ceratitis capitata)
For evaluating control of Mediterranean fruitfly (Ceratitis capitata) the test unit consisted of microtiter plates containing an insect diet and 50-80 C. capitate eggs.
The compounds were formulated using a solution containing 75% v/v water and 25% v/v DMSO. Different concentrations of formulated compounds were sprayed onto the insect diet at 5 μl, using a custom built micro atomizer, at two replications.
(§2) After application, microtiter plates were incubated at about 28±1° C. and about 80±5% relative humidity for 5 days. Egg and larval mortality was then visually assessed.

[4] = system: Tobacco budworm (Heliothis virescens); assay: B.9 Tobacco budworm microtiter plate test on insect diet with eggs; conditions: 120 h, sprayed onto insect diet at 10 μl, egg and larval mortality after 5 days, read-out: mortality in comparison with untreated controls
Protocol: B.9 Tobacco budworm (Heliothis virescens) HELVI
For evaluating control of tobacco budworm (Heliothis virescens) the test unit consisted of 96-well-microtiter plates containing an insect diet and 15-25 H. virescens eggs.
The compounds were formulated using a solution containing 75% v/v water and 25% v/v DMSO. Different concentrations of formulated compounds were sprayed onto the insect diet at 10 μl, using a custom built micro atomizer, at two replications.
as §2

[5] = system: Vetch aphid (Megoura viciae); assay: B.8 Vetch aphid test on broad bean leaf disks in 24-well plates; conditions: foliar, 120 h, sprayed onto leaf disks at 2.5 μl, adult aphids, 5 days, read-out: mortality in comparison with untreated controls
Protocol: B.8 Vetch aphid (Megoura viciae)
For evaluating control of vetch aphid (Megoura viciae) through contact or systemic means the test unit consisted of 24-well-microtiter plates containing broad bean leaf disks.
The compounds were formulated using a solution containing 75% v/v water and 25% v/v DMSO. Different concentrations of formulated compounds were sprayed onto the leaf disks at 2.5 μl, using a custom built micro atomizer, at two replications.
After application, the leaf disks were air-dried and 5-8 adult aphids placed on the leaf disks inside the microtiter plate wells. The aphids were then allowed to suck on the treated leaf disks and incubated at about 23±1° C. and about 50±5% relative humidity for 5 days. Aphid mortality and fecundity was then visually assessed.

[6] = system: Silverleaf whitefly (bernisia argentifolii); assay: B.6 Silverleaf whitefly spray test on cotton plants; conditions: Bemisia argentifolii, 72 h, sprayed cotton plants, whitefly adults, 3 days after treatment, read-out: mortality in comparison with untreated controls
From the text: B.6 Silverleaf whitefly (bernisia argentifolii)
as §1
Cotton plants at the cotyledon stage (one plant per pot) were sprayed by an automated electrostatic plant sprayer equipped with an atomizing spray nozzle. The plants were dried in the sprayer fume hood and then removed from the sprayer. Each pot was placed into a plastic cup and about 10 to 12 whitefly adults (approximately 3-5 days old) were introduced. The insects were collected using an aspirator and a nontoxic Tygon® tubing connected to a barrier pipette tip. The tip, containing the collected insects, was then gently inserted into the soil containing the treated plant, allowing insects to crawl out of the tip to reach the foliage for feeding. Cups were covered with a reusable screened lid. […] Mortality was assessed 3 days after treatment, compared to untreated control plants.

[7] = system: Diamond back moth (Plutella xylostella); assay: B.2 Diamond back moth leaf-dip test on Chinese cabbage; conditions: dipped Chinese cabbage leaves, mortality recorded 24, 72 and 120 hours after treatment, read-out: mortality in comparison with untreated controls
Protocol: B.2 Diamond back moth (Plutella xylostella)
Leaves of Chinese cabbage were dipped in test solution and air-dried. Treated leaves were placed in petri dished lined with moist filter paper. Mortality was recorded 24, 72, and 120 hours after treatment.

[8] = system: Green peach aphid (Myzus persicae); assay: B.3 Green peach aphid systemic test, artificial diet in 96-well plates; conditions: 72 h, adult aphids, 3 days, read-out: mortality in comparison with untreated controls
From the text: B.3 Green peach aphid (Myzus persicae)
For evaluating control of green peach aphid (Myzus persicae) through systemic means the test unit consisted of 96-well-microtiter plates containing liquid artificial diet under an artificial membrane.
The compounds were formulated using a solution containing 75% v/v water and 25% v/v DMSO. Different concentrations of formulated compounds were pipetted into the aphid diet, using a custom built pipetter, at two replications.
After application, 5-8 adult aphids were placed on the artificial membrane inside the microtiter plate wells. The aphids were then allowed to suck on the treated aphid diet and incubated at about 23+1° C. and about 50+5% relative humidity for 3 days. Aphid mortality and fecundity was then visually assessed.

[9] = system: Orchid thrips (dichromothrips corbetti); assay: B.5 Orchid thrips floral-immersion test; conditions: 96 h, adult thrips, after 4 days, read-out: mortality in comparison with untreated controls
Protocol: B.5 Orchid thrips (dichromothrips corbetti)
Dichromothaps corbetti adults used for bioassay were obtained from a colony maintained continuously under laboratory conditions. For testing purposes, the test compound was diluted to a concentration of 500 ppm (wt compound: vol diluent) in a 1:1 mixture of acetone:water (vol:vol), plus 0.01% vol/vol Kinetic® surfactant.
Thrips potency of each compound was evaluated by using a floral-immersion technique. Plastic petri dishes were used as test arenas. All petals of individual, intact orchid flowers were dipped into treatment solution and allowed to dry. Treated flowers were placed into individual petri dishes along with 10-15 adult thrips. The petri dishes were then covered with lids. All test arenas were held under continuous light and a temperature of about 28° C. for duration of the assay. After 4 days, the numbers of live thrips were counted on each flower, and along inner walls of each petri dish. The level of thrips mortality was extrapolated from pre-treatment thrips numbers.

CNC(=O)N/N=C/c1sc(/C=C/C(=O)NC(c2cccc(C(F)(F)F)c2)C(F)(F)F)cc1C (centres unmarked) [Compound 1-1, (E)-3-[4-methyl-5-[(E)-(methylcarbamoylhydrazono)methyl]-2-thienyl]-N-[2,2,2-trifluoro-1-[3-(trifluoromethyl)phenyl]ethyl]prop-2-enamide]
≥ 75%: mortality at 2500 ppm [1] | mortality at 300 ppm [2] | mortality at 2500 ppm [3] | mortality at 2500 ppm [4] | mortality at 2500 ppm [5] | mortality at 300 ppm [6] | mortality at 500 ppm [7] | mortality at 2500 ppm [8] | mortality at 500 ppm [9]

Cc1cc(/C=C/C(=O)NC(c2cccc(C(F)(F)F)c2)C(F)(F)F)sc1C(=O)NC1CC1 (centres unmarked) [Compound 2-1, N-cyclopropyl-3-methyl-5-[(E)-3-oxo-3-[[2,2,2-trifluoro-1-[3-(trifluoromethyl)phenyl]-ethyl]amino]prop-1-enyl]thiophene-2-carboxamide]
≥ 75%: mortality at 2500 ppm [1] | mortality at 300 ppm [2] | mortality at 2500 ppm [3] | mortality at 2500 ppm [4] | mortality at 2500 ppm [5] | mortality at 500 ppm [7] | mortality at 2500 ppm [8] | mortality at 500 ppm [9]

CCN(Cc1sc(/C=C/C(=O)NC(c2cccc(C(F)(F)F)c2)C(F)(F)F)cc1C)C(=O)CS(C)(=O)=O (centres unmarked) [Compound 3-1, (E)-3-[5-[[Ethyl-(2-methylsulfonylacetyl)amino]methyl]-4-methyl-2-thienyl]-N-[2,2,2-trifluoro-1-[3-(trifluoromethyl)phenyl]ethyl]prop-2-enamide]
≥ 75%: mortality at 2500 ppm [1] | mortality at 300 ppm [2] | mortality at 2500 ppm [8] | mortality at 500 ppm [9]

CSCC(=O)NCc1sc(/C=C/C(=O)NC(c2cccc(C(F)(F)F)c2)C(F)(F)F)cc1C (centres unmarked) [Compound 3-6, (E)-3-[4-Methyl-5-[[(2-methylsulfanylacetyl)amino]methyl]-2-thienyl]-N-[2,2,2-trifluoro-1-[3-(trifluoromethyl)phenyl]ethyl]prop-2-enamide]
≥ 75%: mortality at 2500 ppm [1] | mortality at 2500 ppm [8] | mortality at 500 ppm [9]

Cc1sc(/C=C/C(=O)NC(c2cccc(C(F)(F)F)c2)C(F)(F)F)cc1C(=O)NC1CC1 (centres unmarked) [Compound 4-1, N-Cyclopropyl-2-methyl-5-[(E)-3-oxo-3-[[2,2,2-trifluoro-1-[3-(trifluoromethyl)phenyl]-ethyl]amino]prop-1-enyl]thiophene-3-carboxamide]
≥ 75%: mortality at 2500 ppm [1] | mortality at 300 ppm [2] | mortality at 2500 ppm [3] | mortality at 300 ppm [6] | mortality at 2500 ppm [8]
